Columns and labels:
[1] = test system: ADAMTS1, -5, -8, versican, aggrecan, HAS-1, HAS-2, TIMP-3 and MT4-MMP mRNA; test: Myocardial mRNA expression of other ADAMTS, proteoglycans and modulators (qRT-PCR) in aortic banding rats; assay type: in vivo, rat; conditions: AB-rats, PPS-treatment vs vehicle
Method: Three days after AB, rats were stratified by the gradient over the stenosis to ensure similar degree of cardiac stress. Two and two stratified rats were randomized to either 6 mg/kg of the sulfated polysaccharide sodium pentosan polysulfate (PPS) (Interfarm AS, Norway) or vehicle (0.9% NaCl) injected subcutaneously every third day. […] Six weeks after AB or sham operation, the rats were examined by echocardiography and postmortem analysis, performed by experienced investigators (IS, JMA) blinded to treatment group.
In addition, mRNA levels of proteins known to modulate ADAMTS activity or versican function were measured; tissue inhibitor of metalloprotease (TIMP)-3, hyaluronic acid (HA) synthase 1 and 2, and membrane-type (MT)4-MMP, while mRNA levels of ADAMTS1, -4, and versican were quantified in NFB and NCM.
Total RNA was isolated from the left ventricle in AB rats, neonatal rat cardiomyocytes and fibroblasts (RNeasy mini kit, Qiagen, Valencia, Calif.). […] The results were detected on an ABI PRISM 7900 Sequence Detection System (Applied Biosystems, CA).

ADAMTS4 = ADAMTS4 (Rattus norvegicus (Rat), UniProt Q9ESP7); test: Active ADAMTS4 protein level (immunoblotting) in MI rats; assay type: in vivo; conditions: PPS-treatment
Method: (§1) At day 0 to 3 (median 2) after surgery, infarct size was quantified by echocardiography using the Vevo2100 system (Visualsonics Inc, Canada) and magnetic resonance imaging (MRi) using a 9.4 T/210 mm/ASR horizontal bore magnet (Agilent Technologies, Inc., USA). Initially, echocardiography was performed to select moderate to large infarcts ranging approximately 40 to 50%. Thereafter, infarct sizes were exactly measured by late-enhancement gadolinium MRi analyses (Bohl S., et al. American Journal of Physiology, 2009; 296 (4): H1200-H1208) and stratified into small infarcts (stratum 1: <43%, stratum 2: 43-48%), and large infarcts (stratum 3: 48-53%, stratum 4: >53%). The rats in each MI stratum and sham group were randomized to receive intervention or control treatment. The intervention group was treated with 6 mg/kg of sodium PPS (Interfarm AS, Norway), while the control group received vehicle (0.9% NaCl), both injected subcutaneously every third day starting from post-operative day 8-10.
Fractional protein lysates from myocardium of rats having undergone MI treated with PPS or vehicle were extracted as previously described in Example 1 and Didangelos et al. (Journal of Biological Chemistry 2012 Jun. 1; 287(23):19341-5). Protein concentrations were measured by western blotting as previously described in Example 1. […]

ADAMTS5 mRNA = ADAMTS5 mRNA level (qRT-PCR) in MI rats; assay type: in vivo, rat; conditions: PPS-treatment
Method: as §1
(§2) The mRNA levels of the ADAMTS versicanases ADAMTS1, -4, -5, -8, and -20 (Shiomi T, et al. Pathology International 2010; 60(7):477-96), versican, aggrecan, syndecan-4, tissue inhibitor metalloprotease (TIMP)-3, and membrane-type (MT)4-MMP, were quantified in rat left ventricle by qRT-PCR, as previously described in Example 1.

MT4-MMP mRNA = MT4-MMP mRNA level (qRT-PCR) in MI rats; assay type: in vivo, rat; conditions: PPS-treatment
Method: as §1, §2

[2] = test system: acute ischemia/reperfusion model; conditions: administered during reperfusion; cited from earlier work

active ADAMTS4 protein levels (ADAMTS4): decreased
Substance: pentosan polysulfate [PPS]
mRNA levels of ADAMTS1, -5, -8, versican, aggrecan, HAS-1, HAS-2, TIMP-3 and MT4-MMP [1]: not affected | ADAMTS5 mRNA levels (ADAMTS5 mRNA): decreased | mRNA levels of MT4-MMP (MT4-MMP mRNA): decreased | infarction size [2]: reduce infarction size

From patent publication US10322143B2, “Inhibitors of ADAMTS4 or ADAMTS5 for use in preventing or treating cardiac remodeling and chronic heart failure” (Universitetet i Oslo, priority 2013, dated 2019)
